Measured values as given in patent publication EP1183044B1, “ADJUVANT COMBINATIONS FOR IMMUNIZATION AND VACCINES” (priority 1999, dated 2000).
Read-outs that look alike come from different tables or passages of the source.

System: M.tuberculosis (Erdman)
Assay type: in vivo
Conditions: ESAT-6 10 µg/dose three times

| Compound | Log10 resistance Lung, Experiment I (log10 reduction of bacterial load in lung 6 weeks after aerosol challenge) [log10] | Log10 resistance Spleen, Experiment I (log10 reduction of bacterial load in spleen 6 weeks after aerosol challenge) [log10] | Log10 resistance Lung, Experiment I ([…]) [log10] | Log10 resistance Spleen, Experiment I ([…]) [log10] |
| --- | --- | --- | --- | --- |
| monophosphoryl lipid A [MPL] | < 0.05 | <0.05 |  |  |
| CCCCCCCCCCCCCCCCCC[N+](C)(C)CCCCCCCCCCCCCCCCCC.[Br-] [DDA, dimethyl dioctadecyl ammonium bromide] |  |  | < 0.05 | <0.05 |
